From the supplement of paper PMC11061612

Key:
[1] = compound: CN(CC[C@H](CSC1=CC=CC=C1)NC2=C(C=C(C=C2)S(=O)(=O)NC(=O)C3=CC=C(C=C3)N4CCC(CC4)[C@H](C5=CC=CC=C5C6=CC=C(C=C6)Cl)O)S(=O)(=O)C(F)(F)F)CCO [AZD4320]; details: max 1 µM
Outline: (§1)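 Viability was measured with CellTiter-Glo 2.0 luminescence after 72 hours of dosing at a final DMSO of typically 0.2%, and scaled between blank-well and DMSO-well means. Beforehand, cancer cell lines sat 24 hours at 37°C and 5% CO2 in 1536-well plates in 7.5 μl DMEM/F12 or RPMI with 10% FBS. A non-linear mixed effects model fitted two-parameter logistic curves to the dose responses. The single-agent IC50 comes from these fits.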

[2] = compound: C[C@@H](Oc1cc(-c2cnn(C3CCNCC3)c2)cnc1N)c1c(Cl)ccc(F)c1Cl [Crizotinib]; details: max 10 µM
Outline: as §1

[3] = compound: Cn1cnc2c(F)c(Nc3ccc(Br)cc3Cl)c(C(=O)NOCCO)cc21 [Selumetinib]; details: max 10 µM
Outline: as §1

[4] = compound: Cc1nc(-c2cn3c(n2)-c2ccc(-c4cnn(C(C)(C)C(N)=O)c4)cc2OCC3)n(C(C)C)n1 [Taselisib]; details: max 10 µM
Outline: as §1

[5] = compound: C[C@@H](Nc1cc(F)cc(F)c1)c1cc(C(=O)N(C)C)cc2c(=O)cc(N3CCOCC3)oc12 [AZD8186]; details: max 3 µM
Outline: as §1

[6] = compound: NC1(c2ccc(-c3nc4ccn5c(=O)[nH]nc5c4cc3-c3ccccc3)cc2)CCC1 [MK-2206]; details: max 10 µM
Outline: as §1

[7] = compound: CS(=O)(=O)CCNCc1ccc(-c2ccc3ncnc(Nc4ccc(OCc5cccc(F)c5)c(Cl)c4)c3c2)o1 [Lapatinib]; details: max 10 µM
Outline: as §1

[8] = compound: C[C@@H](c1ccc2nccn2c1)n1nnc2ncc(-c3cnn(C)c3)nc21 [Savolitinib]; details: max 1 µM
Outline: as §1

[9] = compound: CC(=O)Nc1cccc(-n2c(=O)n(C3CC3)c(=O)c3c(Nc4ccc(I)cc4F)n(C)c(=O)c(C)c32)c1 [Trametinib]; details: max 1 µM
Outline: as §1

[10] = compound: CCc1c2c(nc3ccc(O)cc13)-c1cc3c(c(=O)n1C2)COC(=O)[C@]3(O)CC [SN-38]; details: max 0.3 µM
Outline: as §1

[11] = compound: CCN(CCO)CCCOc1ccc2c(Nc3cc(CC(=O)Nc4cccc(F)c4)[nH]n3)ncnc2c1 [AZD2811]; details: max 1 µM
Outline: as §1

[12] = compound: CN(C)CCCOc1ccc(-c2ccc3ncc4c(c3c2)n(C2CCOCC2)c(=O)n4C)cn1 [AZD0156]
Outline: as §1

[13] = compound: COc1cc2ncnc(Nc3ccc(F)c(Cl)c3)c2cc1OCCCN1CCOCC1 [Gefitinib]; details: max 10 µM
Outline: as §1

[14] = compound: CC1=C(C(=CC=C1)Cl)NC(=O)C2=CN=C(S2)NC3=CC(=NC(=N3)C)N4CCN(CC4)CCO [Dasatinib]; details: max 2 µM
Outline: as §1

[15] = compound: CC1=CN2[C@@H](C1)C=NC3=CC(=C(C=C3C2=O)OC)OCCCCCOC4=C(C=C5C(=C4)N=C[C@@H]6CC(=CN6C5=O)C)OC [SG3199]; details: max 0.001 µM
Outline: as §1

[16] = compound: C[C@@H]1COCCN1C2=NC(=NC(=C2)C3(CC3)[S@](=N)(=O)C)C4=C5C=CNC5=NC=C4 [AZD6738]; details: max 10 µM
Outline: as §1

[17] = compound: C=CCn1c(=O)c2cnc(Nc3ccc(N4CCN(C)CC4)cc3)nc2n1-c1cccc(C(C)(C)O)n1 [AZD1775]
Outline: as §1

[18] = compound: Cc1c2c(nn1C)CSCc1cc(n(C)n1)CSc1cc(c3ccccc3c1)OCCCc1c(C(=O)O)n(C)c3c-2c(Cl)ccc13 [AZD5991]; details: max 1 µM
Outline: as §1

[19] = compound: CC(=O)c1c(C)c2cnc(Nc3ccc(N4CCNCC4)cn3)nc2n(C2CCCC2)c1=O [Palbociclib]; details: max 10 µM
Outline: as §1

[20] = compound: COc1cccc2c1C(=O)c1c(O)c3c(c(O)c1C2=O)C[C@@](O)(C(=O)CO)C[C@@H]3O[C@H]1C[C@H](N)[C@H](O)[C@H](C)O1 [Doxorubicin]; details: max 1 µM
Outline: as §1

[21] = compound: CC1(C)CCC(CN2CCN(c3ccc(C(=O)NS(=O)(=O)c4ccc(NCC5CCOCC5)c([N+](=O)[O-])c4)c(Oc4cnc5[nH]ccc5c4)c3)CC2)=C(c2ccc(Cl)cc2)C1 [Venetoclax]; details: max 1 µM
Outline: as §1

[22] = compound: COc1cccc(OCCCN)c1-c1cc(Nc2cnc(C#N)cn2)n[nH]1 [Prexasertib]; details: max 1 µM
Outline: as §1

[23] = compound: O=C(c1cc(Cc2n[nH]c(=O)c3ccccc23)ccc1F)N1CCN(C(=O)C2CC2)CC1 [Olaparib]; details: max 10 µM
Outline: as §1

[24] = compound: CC(C)n1c(=O)n(C)c2cnc3cc(F)c(-c4ccc(OCCCN5CCCCC5)nc4)cc3c21 [AZD1390]; details: max 0.3 µM
Outline: as §1

[25] = compound: COc1cc(Nc2ncc3c(n2)-c2ccc(Cl)cc2C(c2c(F)cccc2OC)=NC3)ccc1C(=O)O [Alisertib]; details: max 10 µM
Outline: as §1

[26] = compound: Cc1cc2ncnn2cc1Nc1ncc2c(n1)n(C1CCOCC1)c(=O)n2C [AZD7648]; details: max 10 µM
Outline: as §1

[27] = compound: C1CN(CCC1(C(=O)N[C@@H](CCO)C2=CC=C(C=C2)Cl)N)C3=NC=NC4=C3C=CN4 [Capivasertib]; details: max 10 µM
Outline: as §1

[28] = compound: COc1nnc2ccc(N3CCC(c4ccc(OCCN5CCN(C)C(=O)[C@H]5C)cc4)CC3)nn12 [AZD5153]; details: max 1 µM
Outline: as §1

Cell Line | IC50, cell viability 72 h [1] | IC50, cell viability 72 h [2] | IC50, cell viability 72 h [3] | IC50, cell viability 72 h [4] | IC50, cell viability 72 h [5] | IC50, cell viability 72 h [6] | IC50, cell viability 72 h [7] | IC50, cell viability 72 h [8] | IC50, cell viability 72 h [9] | IC50, cell viability 72 h [10] | IC50, cell viability 72 h [11] | IC50, cell viability 72 h ([12]; max 3 µM) | IC50, cell viability 72 h [13] | IC50, cell viability 72 h [14] | IC50, cell viability 72 h [15] | IC50, cell viability 72 h [16] | IC50, cell viability 72 h ([17]; max 3 µM) | IC50, cell viability 72 h [18] | IC50, cell viability 72 h [19] | IC50, cell viability 72 h [20] | IC50, cell viability 72 h [21] | IC50, cell viability 72 h [22] | IC50, cell viability 72 h [23] | IC50, cell viability 72 h [24] | IC50, cell viability 72 h [25] | IC50, cell viability 72 h [26] | IC50, cell viability 72 h [27] | IC50, cell viability 72 h [28] | IC50, cell viability 72 h ([12]; max 1 µM) | IC50, cell viability 72 h ([17]; max 1 µM)
NCI-H2052 (Mesothelioma) | > 1000 nM | > 10000 nM | > 10000 nM | 3670 nM | > 3000 nM | > 10000 nM | > 10000 nM | > 1000 nM | > 1000 nM | 38.5 nM | > 1000 nM | > 3000 nM | > 10000 nM | 1510 nM | > 1 nM | > 10000 nM | > 3000 nM | > 1000 nM | > 10000 nM | > 1000 nM | > 1000 nM | 574 nM | > 10000 nM | > 300 nM | > 10000 nM | > 10000 nM | > 10000 nM | > 1000 nM | – | –
NCI-H1568 (Lung Adenocarcinoma) | > 1000 nM | > 10000 nM | > 10000 nM | > 10000 nM | > 3000 nM | – | > 10000 nM | > 1000 nM | > 1000 nM | 297 nM | > 1000 nM | > 3000 nM | > 10000 nM | > 2000 nM | > 1 nM | > 10000 nM | 1760 nM | > 1000 nM | > 10000 nM | > 1000 nM | > 1000 nM | 424 nM | > 10000 nM | > 300 nM | > 10000 nM | > 10000 nM | > 10000 nM | > 1000 nM | – | –
CAL-33 (Oral Cavity Carcinoma) | > 1000 nM | > 10000 nM | > 10000 nM | 122 nM | > 3000 nM | – | 3530 nM | > 1000 nM | 724 nM | 5.71 nM | 255 nM | > 3000 nM | > 10000 nM | 550 nM | > 1 nM | 4390 nM | 659 nM | > 1000 nM | > 10000 nM | 219 nM | > 1000 nM | 138 nM | > 10000 nM | > 300 nM | 553 nM | > 10000 nM | > 10000 nM | > 1000 nM | – | –
NCI-H2722 (Mesothelioma) | > 1000 nM | > 10000 nM | > 10000 nM | > 10000 nM | > 3000 nM | – | > 10000 nM | > 1000 nM | > 1000 nM | > 300 nM | > 1000 nM | > 3000 nM | > 10000 nM | > 2000 nM | > 1 nM | > 10000 nM | > 3000 nM | > 1000 nM | > 10000 nM | > 1000 nM | > 1000 nM | > 1000 nM | > 10000 nM | > 300 nM | > 10000 nM | > 10000 nM | > 10000 nM | > 1000 nM | – | –
FTC-133 (Thyroid Gland Carcinoma) | > 1000 nM | > 10000 nM | > 10000 nM | > 10000 nM | > 3000 nM | – | > 10000 nM | > 1000 nM | > 1000 nM | 6.51 nM | > 1000 nM | – | > 10000 nM | > 2000 nM | > 1 nM | 4690 nM | – | 999 nM | > 10000 nM | 352 nM | > 1000 nM | 29.2 nM | > 10000 nM | > 300 nM | 8360 nM | > 10000 nM | 8760 nM | 657 nM | > 1000 nM | 968 nM
NUGC-4 (Gastric Carcinoma) | > 1000 nM | > 10000 nM | 5680 nM | > 10000 nM | > 3000 nM | – | > 10000 nM | > 1000 nM | > 1000 nM | > 300 nM | > 1000 nM | > 3000 nM | > 10000 nM | > 2000 nM | > 1 nM | > 10000 nM | 2530 nM | > 1000 nM | > 10000 nM | > 1000 nM | > 1000 nM | 948 nM | > 10000 nM | > 300 nM | > 10000 nM | > 10000 nM | > 10000 nM | 582 nM | – | –
